A short description of assay [1]: Inhibition of serum-induced proliferation of human TCC97-7 cells carrying FGFR3 Ser249Cys mutation at 1 uM after 3 days. In kind it is functional. Particulars: TCC97-7, 72 h.
A short description of assay [2]: Inhibition of serum-induced proliferation of human TCC97-7 cells carrying FGFR3 Ser249Cys mutation at 10 uM after 3 days. In kind it is functional. Particulars: TCC97-7, 72 h.
In assay [3] the test system is Fibroblast growth factor receptor 3 (Homo sapiens), P22607 [S249C]. As to the kind of experiment: Antagonist activity against FGFR3 Ser249Cys mutant in human TCC97-7 cells cultured in serum-supplemented medium assessed as reduction in ATP content at 10 um after 3 days by cell titer-Glo luminescent cell viability assay. In kind it is cell-based.
Sequence of Fibroblast growth factor receptor 3 (Homo sapiens), P22607 [S249C] (P22607 whole entry S249C): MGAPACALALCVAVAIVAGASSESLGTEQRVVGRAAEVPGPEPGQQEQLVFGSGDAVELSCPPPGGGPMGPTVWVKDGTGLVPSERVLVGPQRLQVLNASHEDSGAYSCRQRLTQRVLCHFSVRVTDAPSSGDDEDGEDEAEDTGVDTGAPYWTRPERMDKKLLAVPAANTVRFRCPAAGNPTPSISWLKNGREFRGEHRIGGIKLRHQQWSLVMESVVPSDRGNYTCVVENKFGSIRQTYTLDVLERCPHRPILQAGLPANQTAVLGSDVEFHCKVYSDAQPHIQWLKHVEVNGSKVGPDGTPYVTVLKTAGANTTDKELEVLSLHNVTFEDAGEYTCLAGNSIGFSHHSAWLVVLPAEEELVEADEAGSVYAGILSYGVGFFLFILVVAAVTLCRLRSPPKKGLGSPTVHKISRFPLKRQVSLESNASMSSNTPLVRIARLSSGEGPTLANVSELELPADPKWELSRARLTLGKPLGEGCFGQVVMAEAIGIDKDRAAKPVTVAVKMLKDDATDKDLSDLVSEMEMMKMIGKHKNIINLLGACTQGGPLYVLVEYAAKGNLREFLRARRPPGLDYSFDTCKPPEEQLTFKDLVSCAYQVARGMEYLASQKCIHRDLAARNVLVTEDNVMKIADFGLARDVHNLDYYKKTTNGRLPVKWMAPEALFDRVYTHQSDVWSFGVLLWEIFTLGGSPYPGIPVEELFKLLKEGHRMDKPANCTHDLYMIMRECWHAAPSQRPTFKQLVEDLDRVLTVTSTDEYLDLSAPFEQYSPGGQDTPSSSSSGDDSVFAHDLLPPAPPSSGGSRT
Assay [4] shares this test system. As to the kind of experiment: Antagonist activity against FGFR3 Ser249Cys mutant in human TCC97-7 cells cultured in serum-supplemented medium assessed as reduction in ATP content at 1 um after 3 days by cell titer-Glo luminescent cell viability assay. It is filed as cell-based. (Cellular ATP, detected with luciferase, serves as a proxy for viable cell number.)

For `O=c1[nH]c2ccc(-c3cc(C(F)(F)F)c4c(-c5ccccc5)n[nH]c4n3)cc2[nH]1`, in assay [1], the inhibition – broadly, the relative decrease from the control value, in per cent – at 1 µM is -3%. Also, the inhibition at 10 µM in assay [2] stood at 29%. The inhibition in assay [3] was found to be 19%.
Take `Cn1nc(-c2ccccc2)c2c(C(F)(F)F)cc(-c3cccc(C(N)=O)c3)nc21`: in assay [1], the inhibition at 1 µM turned out to be 8%. In addition, in assay [2], the inhibition at 10 µM turned out to be 91.6%. Moreover, the inhibition in assay [4] turned out to be 10.9%; in assay [3] it was 41.1%.
On the same counts, the results for `O=C(c1cccc(-c2cc(C(F)F)c3c(-c4ccccc4)n[nH]c3n2)c1)N1CCCC1` are 16.2%, 83.9%, 26.9% and 90.5%.
`Cn1nc(-c2ccccc2)c2c(C(F)(F)F)cc(-c3ccc(C(=O)O)cc3)nc21`: the inhibition at 1 µM in assay [1] worked out at 8%. In addition, in assay [2], the inhibition at 10 µM turned out to be 33%. For the same compound, the inhibition in assay [4] came out at 17%; in assay [3], 40%.
